Laboratory results published in patent publication US20250353841A1 (BIOGEN MA INC., priority 2022, published 2025).

Tested on: mutant Huntington (HTT) protein
Experiment: HTT Mutant HTRF iPSC assay (mHTT protein lowering)
Assay type: cell-based
Conditions: human iPSC derived from a HTT patient with a poly-Q49 mutation

SMILES | IC50 [nM]
Cc1cn2nc(-c3cc(F)c4[nH]c(C5CCN(C6CCCC6)CC5)nc4c3)cc(C)c2n1 [Compound 427, 6-(2-(1-cyclopentylpiperidin-4-yl)-7-fluoro-1H-benzo[d]imidazol-5-yl)-2,8-dimethylimidazo[1,2-b]pyridazine] | < 100
Cc1cn2nc(-c3cc(F)c4[nH]c(C5CC6CCC(C5)N6)nc4c3)cc(C)c2n1 (stereo not drawn) [Compound 428, 6-(2-(8-azabicyclo[3.2.1]octan-3-yl)-7-fluoro-1H-benzo[d]imidazol-5-yl)-2,8-dimethylimidazo[1,2-b]pyridazine] | < 100
Cc1cn2nc(-c3cc(F)c4[nH]c(C5C6CNCC65)nc4c3)cc(C)c2n1 (stereo not drawn) [Compound 429, 6-(2-(3-azabicyclo[3.1.0]hexan-6-yl)-7-fluoro-1H-benzo[d]imidazol-5-yl)-2,8-dimethylimidazo[1,2-b]pyridazine] | < 100
Cc1cn2nc(-c3cc(F)c4[nH]c(C5C6CN(C)CC65)nc4c3)cc(C)c2n1 (stereo not drawn) [Compound 430, 6-(7-fluoro-2-(3-methyl-3-azabicyclo[3.1.0]hexan-6-yl)-1H-benzo[d]imidazol-5-yl)-2,8-dimethylimidazo[1,2-b]pyridazine] | < 100
Cc1cn2cc(-c3cc(F)c4nc(C5CCNCC5)nn4c3)cc2c(C)n1 [Compound 431, 6-(1,3-dimethylpyrrolo[1,2-a]pyrazin-7-yl)-8-fluoro-2-(piperidin-4-yl)-[1,2,4]triazolo[1,5-a]pyridine] | 100 to 1000
Cc1cc(-c2cc(F)c3nc(C4CCNCC4)nn3c2)cc2cn(C)nc12 [Compound 432, 6-(2,7-dimethyl-2H-indazol-5-yl)-8-fluoro-2-(piperidin-4-yl)-[1,2,4]triazolo[1,5-a]pyridine] | 100 to 1000
Cc1cn2nc(-c3cc(F)c4nc(C5CCN(C6CC6)CC5)nn4c3)cc(C)c2n1 [Compound 433, 2-(1-cyclopropylpiperidin-4-yl)-6-(2,8-dimethylimidazo[1,2-b]pyridazin-6-yl)-8-fluoro-[1,2,4]triazolo[1,5-a]pyridine] | 100 to 1000
Cc1cn2nc(-c3cc(F)c4nc(C5CCN(C)CC5)nn4c3)cc(C)c2n1 [Compound 434, 6-(2,8-dimethylimidazo[1,2-b]pyridazin-6-yl)-8-fluoro-2-(1-methylpiperidin-4-yl)-[1,2,4]triazolo[1,5-a]pyridine] | 100 to 1000
CCN1CCC(c2nc3c(F)cc(-c4cc(C)c5nc(C)cn5n4)cn3n2)CC1 [Compound 435, 6-(2,8-dimethylimidazo[1,2-b]pyridazin-6-yl)-2-(1-ethylpiperidin-4-yl)-8-fluoro-[1,2,4]triazolo[1,5-a]pyridine] | 100 to 1000
Cc1cn2nc(-c3cc(F)c4nc(C5CCN(CC(C)(C)C)CC5)nn4c3)cc(C)c2n1 [Compound 436, 6-(2,8-dimethylimidazo[1,2-b]pyridazin-6-yl)-8-fluoro-2-(1-neopentylpiperidin-4-yl)-[1,2,4]triazolo[1,5-a]pyridine] | 100 to 1000
Cc1cn2nc(-c3cc(F)c4nc(C5CCN(C6CCC6)CC5)nn4c3)cc(C)c2n1 [Compound 437, 2-(1-cyclobutylpiperidin-4-yl)-6-(2,8-dimethylimidazo[1,2-b]pyridazin-6-yl)-8-fluoro-[1,2,4]triazolo[1,5-a]pyridine] | 100 to 1000
Cc1cn2nc(-c3cc(F)c4nc(C5CCN(CC6CC6)CC5)nn4c3)cc(C)c2n1 [Compound 438, 2-(1-(cyclopropylmethyl)piperidin-4-yl)-6-(2,8-dimethylimidazo[1,2-b]pyridazin-6-yl)-8-fluoro-[1,2,4]triazolo[1,5-a]pyridine] | 100 to 1000
COCCN1CCC(c2nc3c(F)cc(-c4cc(C)c5nc(C)cn5n4)cn3n2)CC1 [Compound 439, 6-(2,8-dimethylimidazo[1,2-b]pyridazin-6-yl)-8-fluoro-2-[1-(2-methoxyethyl)-4-piperidyl]-[1,2,4]triazolo[1,5-a]pyridine] | 100 to 1000
Cc1cn2nc(-c3cc(F)c4nc(CC5CNC5)nn4c3)cc(C)c2n1 [Compound 440, 2-(azetidin-3-ylmethyl)-6-(2,8-dimethylimidazo[1,2-b]pyridazin-6-yl)-8-fluoro-[1,2,4]triazolo[1,5-a]pyridine] | 100 to 1000
Cc1cn2nc(-c3cc(F)c4nc(C5CCN(Cc6ncccn6)CC5)nn4c3)cc(C)c2n1 [Compound 441, 6-(2,8-dimethylimidazo[1,2-b]pyridazin-6-yl)-8-fluoro-2-(1-(pyrimidin-2-ylmethyl)piperidin-4-yl)-[1,2,4]triazolo[1,5-a]pyridine] | 100 to 1000
Cc1cn2nc(-c3cc(F)c4nc(C5CC6(CNC6)C5)nn4c3)cc(C)c2n1 [Compound 442, 6-(2,8-dimethylimidazo[1,2-b]pyridazin-6-yl)-8-fluoro-2-(2-azaspiro[3.3]heptan-6-yl)-[1,2,4]triazolo[1,5-a]pyridine] | 100 to 1000
Cc1cn2nc(-c3cc(F)c4nc([C@H]5[C@@H]6CNC[C@@H]65)nn4c3)cc(C)c2n1 [Compound 443, 2-[(1R,5S)-3-azabicyclo[3.1.0]hexan-6-yl]-6-(2,8-dimethylimidazo[1,2-b]pyridazin-6-yl)-8-fluoro-[1,2,4]triazolo[1,5-a]pyridine] | < 100
Cc1cn2nc(-c3cc(F)c4nc(C5CCN(CC6CCC6)CC5)nn4c3)cc(C)c2n1 [Compound 444, 2-(1-(cyclobutylmethyl)piperidin-4-yl)-6-(2,8-dimethylimidazo[1,2-b]pyridazin-6-yl)-8-fluoro-[1,2,4]triazolo[1,5-a]pyridine] | 100 to 1000
Cc1cn2nc(-c3cc(F)c4nc(C5CCC(C)(C)NC5)nn4c3)cc(C)c2n1 (stereo not drawn) [Compound 445, 6-(2,8-dimethylimidazo[1,2-b]pyridazin-6-yl)-2-(6,6-dimethylpiperidin-3-yl)-8-fluoro-[1,2,4]triazolo[1,5-a]pyridine] | 100 to 1000
Cc1cn2nc(-c3cc(F)c4nc(CC5CNCCO5)nn4c3)cc(C)c2n1 (stereo not drawn) [Compound 446, 2-((6-(2,8-dimethylimidazo[1,2-b]pyridazin-6-yl)-8-fluoro-[1,2,4]triazolo[1,5-a]pyridin-2-yl)methyl)morpholine] | 100 to 1000
Cc1cn2nc(-c3cc(F)c4nc(C5CCC(N(C)C)CC5)nn4c3)cc(C)c2n1 (stereo not drawn) [Compound 447, 4-(6-(2,8-dimethylimidazo[1,2-b]pyridazin-6-yl)-8-fluoro-[1,2,4]triazolo[1,5-a]pyridin-2-yl)-N,N-dimethylcyclohexan-1-amine] | 100 to 1000
Cc1cn2nc(-c3cc(F)c4nc(CC5CCN(C)CC5)nn4c3)cc(C)c2n1 [Compound 448, 6-(2,8-dimethylimidazo[1,2-b]pyridazin-6-yl)-8-fluoro-2-((1-methylpiperidin-4-yl)methyl)-[1,2,4]triazolo[1,5-a]pyridine] | 100 to 1000
Cc1cn2nc(-c3cc(F)c4nc(C[C@H]5C[C@H](N)C5)nn4c3)cc(C)c2n1 [Compound 449, (1r,3r)-3-((6-(2,8-dimethylimidazo[1,2-b]pyridazin-6-yl)-8-fluoro-[1,2,4]triazolo[1,5-a]pyridin-2-yl)methyl)cyclobutan-1-amine] | 100 to 1000
Cc1cn2nc(-c3cc(F)c4nc(C[C@H]5C[C@@H](N)C5)nn4c3)cc(C)c2n1 [Compound 450, (1s,3s)-3-((6-(2,8-dimethylimidazo[1,2-b]pyridazin-6-yl)-8-fluoro-[1,2,4]triazolo[1,5-a]pyridin-2-yl)methyl)cyclobutan-1-amine] | 100 to 1000
